# Measurements published in PubChem BioAssay (NCI).
#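 Growth conditions: 96-well plates. Treatment: test compound, 48 hours, 5 concentrations. Analysis: linear interpolation between bracketing concentrations; unreached endpoints set to highest concentration. TGI: total growth inhibition.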
# Legend:
# Assay in all cases: NCI-60 cell line screen, 48 h
# TK-10 renal = system: TK-10 renal
# HCT-116 colon = system: HCT-116 colon
# SNB-75 CNS = system: SNB-75 CNS
# HS 578T breast = system: HS 578T breast
# UACC-257 melanoma = system: UACC-257 melanoma
# MCF7 breast = system: MCF7 breast
# PC-3 prostate = system: PC-3 prostate
# SK-MEL-5 melanoma = system: SK-MEL-5 melanoma
# HOP-62 NSCLC = system: HOP-62 NSCLC
# U251 CNS = system: U251 CNS
# 786-0 renal = system: 786-0 renal
# UACC-62 melanoma = system: UACC-62 melanoma
# A498 renal = system: A498 renal
# DU-145 prostate = system: DU-145 prostate
# SN12C renal = system: SN12C renal
# NCI-H23 lung = system: NCI-H23 lung
# NCI-H226 lung = system: NCI-H226 lung
# HCC-2998 colon = system: HCC-2998 colon
# HL-60(TB) leukemia = system: HL-60(TB) leukemia
# BT-549 breast = system: BT-549 breast
# MDA-N = system: MDA-N
# COLO 205 colon = system: COLO 205 colon
# SNB-19 CNS = system: SNB-19 CNS
# LOX IMVI melanoma = system: LOX IMVI melanoma
# HT29 colon = system: HT29 colon
# RPMI-8226 leukemia = system: RPMI-8226 leukemia
# SK-MEL-28 melanoma = system: SK-MEL-28 melanoma
# SF-539 CNS = system: SF-539 CNS
# NCI-H522 lung = system: NCI-H522 lung
# CCRF-CEM leukemia = system: CCRF-CEM leukemia
# NCI/ADR-RES ovarian = system: NCI/ADR-RES ovarian
# IGROV1 ovarian = system: IGROV1 ovarian
# SR leukemia = system: SR leukemia
# HCT-15 colon = system: HCT-15 colon
# KM12 colon = system: KM12 colon
# NCI-H460 lung = system: NCI-H460 lung
# HOP-92 NSCLC = system: HOP-92 NSCLC
# MALME-3M melanoma = system: MALME-3M melanoma
# M14 melanoma = system: M14 melanoma
# MOLT-4 leukemia = system: MOLT-4 leukemia
# SK-MEL-2 melanoma = system: SK-MEL-2 melanoma
# A549 NSCLC = system: A549 NSCLC
# UO-31 renal = system: UO-31 renal
# K-562 leukemia = system: K-562 leukemia
# MDA-MB-231 breast = system: MDA-MB-231 breast
# SW-620 colon = system: SW-620 colon
# MDA-MB-435 = system: MDA-MB-435
# RXF 393 renal = system: RXF 393 renal
# OVCAR-5 ovarian = system: OVCAR-5 ovarian
# OVCAR-4 ovarian = system: OVCAR-4 ovarian
# SF-295 CNS = system: SF-295 CNS
# EKVX NSCLC = system: EKVX NSCLC
# SK-OV-3 ovarian = system: SK-OV-3 ovarian
# CAKI-1 renal = system: CAKI-1 renal
# SF-268 CNS = system: SF-268 CNS
# T-47D breast = system: T-47D breast
# ACHN renal = system: ACHN renal
# OVCAR-3 ovarian = system: OVCAR-3 ovarian
# OVCAR-8 ovarian = system: OVCAR-8 ovarian
structure (smiles),measurement,setting,value
S=C(N/N=C(/c1ccccc1)c1ccccn1)Nc1ccc(Cl)cc1,TGI,TK-10 renal,8.3 µM
same,TGI,HCT-116 colon,4.47 µM
same,TGI,SNB-75 CNS,8.84 µM
same,TGI,HS 578T breast,> 78.2 µM
same,TGI,UACC-257 melanoma,2.43 µM
same,TGI,MCF7 breast,7.16 µM
same,TGI,PC-3 prostate,10.3 µM
same,TGI,SK-MEL-5 melanoma,8.1 µM
same,TGI,HOP-62 NSCLC,16.6 µM
same,TGI,U251 CNS,12.4 µM
same,TGI,786-0 renal,12.3 µM
same,TGI,UACC-62 melanoma,7.65 µM
same,TGI,A498 renal,9.4 µM
same,TGI,DU-145 prostate,11.6 µM
same,TGI,SN12C renal,13.4 µM
same,TGI,NCI-H23 lung,22.6 µM
same,TGI,NCI-H226 lung,7.54 µM
same,TGI,HCC-2998 colon,10.9 µM
same,TGI,HL-60(TB) leukemia,0.543 µM
same,TGI,BT-549 breast,9.94 µM
same,TGI,MDA-N,9.57 µM
same,TGI,COLO 205 colon,18.2 µM
same,TGI,SNB-19 CNS,20.7 µM
same,TGI,LOX IMVI melanoma,7.49 µM
same,TGI,HT29 colon,> 44.3 µM
same,TGI,RPMI-8226 leukemia,> 25.9 µM
same,TGI,SK-MEL-28 melanoma,11.8 µM
same,TGI,SF-539 CNS,8.55 µM
same,TGI,NCI-H522 lung,11.5 µM
same,TGI,CCRF-CEM leukemia,2.26 µM
same,TGI,NCI/ADR-RES ovarian,14.3 µM
same,TGI,IGROV1 ovarian,12.9 µM
same,TGI,SR leukemia,6.75 µM
same,TGI,HCT-15 colon,11.2 µM
same,TGI,KM12 colon,13.7 µM
same,TGI,NCI-H460 lung,5.53 µM
same,TGI,HOP-92 NSCLC,11.9 µM
same,TGI,MALME-3M melanoma,10.6 µM
same,TGI,M14 melanoma,2.81 µM
same,TGI,MOLT-4 leukemia,> 13.8 µM
same,TGI,SK-MEL-2 melanoma,4.91 µM
same,TGI,A549 NSCLC,14 µM
same,TGI,UO-31 renal,9.37 µM
same,TGI,K-562 leukemia,0.581 µM
same,TGI,MDA-MB-231 breast,8.27 µM
same,TGI,SW-620 colon,11.1 µM
same,TGI,MDA-MB-435,10.2 µM
same,TGI,RXF 393 renal,7.87 µM
same,TGI,OVCAR-5 ovarian,6.2 µM
same,TGI,OVCAR-4 ovarian,14.2 µM
same,TGI,SF-295 CNS,11.3 µM
same,TGI,EKVX NSCLC,15.5 µM
same,TGI,SK-OV-3 ovarian,6.81 µM
same,TGI,CAKI-1 renal,9.37 µM
same,TGI,SF-268 CNS,15.5 µM
same,TGI,T-47D breast,2.89 µM
same,TGI,ACHN renal,9.01 µM
same,TGI,OVCAR-3 ovarian,11.6 µM
same,TGI,OVCAR-8 ovarian,3.19 µM
